Test results reported in US7351837B1, “Thermally cleavable surfactants without deprotonation” (Sandia Corporation, priority 2004, dated 2008).

Tests used:
Assay type in all cases: physicochemical
[1] = critical micelle concentration by dynamic surface tension (maximum bubble pressure method); conditions: aqueous solution
Experimental: The dynamic surface tension measurements were conducted using a SENSADYNE® QC3000 dynamic surface tensiometer (available from the SENSADYNE® Instruments Division of the Chem-Dyne Research Corporation, Mesa, Ariz.) that utilizes the maximum bubble pressure method. The fundamental operating principles and theoretical considerations of this method are explained in detail elsewhere, and a brief summary only is given here. Two glass probes with different orifice diameters (0.5 and 4.0 mm) were submerged in an aqueous surfactant solution and nitrogen was bubbled through the samples. Dry nitrogen was used as the bubble source gas and was delivered to the instrument at 50 psi. The instrument was operated at a bubble frequency of 0.5 Hz to approximate equilibrium surface tension values for each sample. The differential pressure signal generated by bubble formation is related to the interfacial surface tension of the liquid and gas. Surface tension calibration was carried out by measuring the surface tension of deionized water and ethanol and comparing to known literature values. Solution temperature was monitored with a calibrated thermistor (± 0.1° C.) attached to the orifice probes. Instrumental calibration was conducted for every change in experimental conditions and after prolonged periods of instrumental quiescence. All experiments were conducted at 25.0±0.2° C. unless otherwise noted. […]

[2] = retro-DA degradation via surface tension; conditions: 10 mM aqueous solution
Experimental: The surfactants of the invention undergo the retro-DA reaction after exposure to elevated temperatures. […] Data were recorded for all experiments via a computer interface using the […]3000 version 5.3 software. […] Additional measurements to determine the effect of temperature on the rates of surfactant dissociation and loss of surface active properties were conducted on 10 mM solutions of surfactant 3. The data shown in FIG. 3 clearly indicate that the temperature at which the samples are elevated to has a dramatic impact on the rate at which the surface active properties are lost in these solutions. […] At the lowest temperature monitored, 55° C., it takes over 30 hours of exposure to eliminate surface activity. The data has been fit with a logistic 4-parameter algorithm using SIGMAPLOT® (available from Systat Software, Inc., Richmond, Calif.). […] The effective control of the surface active properties of the system is envisioned to be accomplished by manipulating one or any combination of these parameters. It should also be noted that all of the surface tension measurements of the cleaved samples were taken after the samples had cooled to ambient conditions, and are convincing evidence that the dissociation accompanying the retro DA is irreversible in micelles.

[3] = retro-DA degradation via 1H NMR; conditions: 65° C., 10 mM aqueous sample, isothermal
Text: Percent degradation was tracked by recording the decrease in the integral value for the bridge head proton of the DA adduct located at 5.02 ppm. […] It is important to note that the percent degradation of surfactant 5 over various temperatures is not necessarily linear. This is a result of the Keq for the reversible DA reaction with DA adduct formation/stability dominating at lower temperatures.

## CCCCCCCCCCCCC12C=CC(O1)C1C(=O)N(c3ccc(S(=O)(=O)[O-])cc3)C(=O)C12.[Na+] (stereo not drawn) [surfactant 3, exo-4-Dodecyl-7-oxabicyclo[2.2.1]hept-5-ene-2,3-dicarboxy-N-(4-sodiumsulfophenyl)imide]
[1]; 25.0±0.2° C., bubble frequency 0.5 Hz
  cmc by dynamic surface tension measurements: 5.1 mM
[1]; FIG. 2
  second inflection point of surface tension vs concentration (micelles begin to form): ~5 mM
[2]; 55° C.
  time of exposure to eliminate surface activity: over 30 hours
[2]; 95° C.
  time of exposure to loss of all surface activity (surface tension is that of water): ≤ 1 h
[3]
  time of heating to complete degradation (1H NMR): about 10 hours
